Calls of active or inactive are those of the source. No rule for the calls is given here.

As usually defined, the EC50 is the concentration giving half of the maximal effect.

The test system of the experiment is prostate cells, cell count (flow cytometry events), cytotoxicity. Nature of the experiment: prostate cell loss as cytotoxicity readout, dose response, cytotoxicity control for prostate cell differentiation activator project, flow cytometry event count (AID 1200). In general terms: In flow cytometry, cells or beads pass a laser one at a time.
Consider `CCOc1ccc(-c2cc(C(=O)NCCCN3CCN(CC)CC3)c3ccccc3n2)cc1`, for which the EC50 was 11.1 µM (inactive).
Turning to `CCN1CCCC1CNC(=O)c1cc2c(-c3ccc(Cl)cc3)nn(C)c2s1` (stereo not drawn), the EC50 was 4.83 µM.
The figure for `COc1ccc(-c2ccc(-c3noc(-c4ccccc4)n3)c(OC)n2)cc1` is 3.16 µM (inactive); for `O=S1(=O)C=C(Sc2nc3ccccc3s2)c2ccccc21` it is 0.959 µM; for `Oc1c(CN2CCCCC2)cc(COCc2ccccc2)c2cccnc12` it is 2.96 µM.
The figure for `CCn1c(=O)cc(SCC(=O)NCCN2CCN(Cc3ccccc3)CC2)c2ccccc21` is 14.5 µM (inactive).
`Cc1ccccc1-c1nc(CN2CCC(C(=O)NCc3cccnc3)CC2)c(C)o1`: the half-maximal effective concentration (EC50) is 1.99 µM.
The figure for `CCCN(CCC)CCNC(=O)C1CCN(Cc2nc(-c3ccc(Cl)cc3)oc2C)CC1` is 6.46 µM; for `O=C(CCN1C(=O)COc2ccccc21)NCCCN1CCN(c2ccc(F)cc2)CC1` it is > 30 µM (inactive); for `Cn1c(=O)cc(SCC(=O)NCCCN2CCN(c3ccccc3F)CC2)c2ccccc21` it is 1.17 µM.
The figure for `O=C(NCCCN1CCN(c2cccc(Cl)c2)CC1)c1cccc(N2CCCC2=O)c1` is 11.2 µM; for `Cc1ccccc1-c1nc(CN2CCC(C(=O)NCCCN3CC(C)CC(C)C3)CC2)c(C)o1` (stereo not drawn) it is 2.11 µM.
With `CCN1CCN(CCNC(=O)C2CCN(Cc3nc(-c4ccc(Cl)cc4)oc3C)CC2)CC1` the figure was 8.88 µM (inactive).
For the compound `Cc1oc(-c2ccc(Cl)cc2)nc1CN1CCC(C(=O)NCCCN2CCOCC2)CC1`, the EC50 is 17.8 µM (inactive).
The figure for `CN(CC(O)COc1ccc(OCC(O)CN(C)C2CCCCC2)cc1)C1CCCCC1` (stereo not drawn) is 0.424 µM; for `COc1ccc(Cc2nc(-c3ccc(-n4cccc4)cc3)no2)cc1OC` it is 3.01 µM (inactive).
With `CN(CCNC(=O)C1CC(=O)N(c2ccc(F)c(Cl)c2)C1)Cc1ccccc1` (stereo not drawn) the figure was 27.5 µM (inactive); with `CCN(CC)CC(=O)Nc1ccc(-c2nc3cc(NC(=O)CN(CC)CC)ccc3o2)cc1`, 8.06 µM; with `COc1ccc(-c2cc(C(F)(F)F)nc(N3CCN(Cc4ccccc4)CC3)n2)cc1OC`, 9.88 µM (inactive).
With `COc1ccc(-c2oc3ncn(CCN4CCOCC4)c(=N)c3c2-c2ccc(OC)cc2)cc1` the figure was 3.2 µM; with `CCOC(=O)c1c(C)n(C)c2ccc(OCC(O)CNC(CC)CO)cc12` (stereo not drawn), 10.9 µM (inactive).
With `CN(C)CCCN1c2ccccc2CCc2ccc(Cl)cc21`, the EC50 is 5.46 µM.
The figure for `O=C(c1ccccc1)c1ccc(N2CCNCC2)cc1` is > 30 µM (inactive); for `O=C(NCCCN1CCN(c2ccc(F)cc2)CC1)c1cccc(N2CCCC2=O)c1` it is 0.441 µM (inactive); for `Cc1cc(N2CCN(C)CC2)nc2ccc(NC(=O)c3ccc(Br)o3)cc12` it is 8.72 µM.
For the compound `Cc1ccccc1-c1nc(CN2CCCC(C(=O)NCCCN3CCOCC3)C2)c(C)o1` (stereo not drawn), the EC50 was 13.9 µM (inactive).
For `CCN(CC)CCNC(=O)c1ccc(N2CCCCC2)c(NS(=O)(=O)c2ccc(C)cc2)c1`, the 50% effective concentration (EC50) is 0.145 µM.
The figure for `CCn1c(=O)cc(SCC(=O)NCCCN2CCN(c3ccccc3F)CC2)c2ccccc21` is 15.6 µM (inactive); for `CCOC(=O)c1c(C)[nH]c(C(=O)COC(=O)C2CC2C)c1C` (stereo not drawn) it is 0.441 µM; for `Nc1ccc(-n2ccnc2)cc1` it is 1.04 µM (inactive).
With `CCc1ccc(-c2nc(CN3CCC(C(=O)NCc4ccc(F)cc4)CC3)c(C)o2)cc1` the figure was 1.8 µM; with `CN1CCN(CCCNC(=O)c2cc3c(-c4ccc(Cl)cc4)nn(C)c3s2)CC1`, 4.25 µM; with `COc1ccc(CCN2CCC(Nc3nc4ccccc4n3Cc3ccc(F)cc3)CC2)cc1`, 7.83 µM (inactive).
Turning to `CC(C)(C)c1ccc(C(O)CCCN2CCC(C(O)(c3ccccc3)c3ccccc3)CC2)cc1` (stereo not drawn), the EC50 is 0.00318 µM (inactive).
Regarding `Cn1nc(-c2ccc(Cl)cc2)c2cc(C(=O)NCCCN3CCCC3)sc21`, the EC50 is 4.21 µM.
The figure for `CCN1CCN(C(c2cccs2)C(C)NS(=O)(=O)c2ccc(Br)cc2)CC1` (stereo not drawn) is 10.1 µM (inactive); for `Cc1ccc(C)c(N2CCN(CCCNC(=O)Cn3cc4c(n3)CCCCC4)CC2)c1` it is 11.1 µM.
The figure for `CCN(CC)CCCNC(=O)c1cc2c(-c3ccc(Cl)cc3)nn(C)c2s1` is 2.64 µM.
The figure for `CC(C)N1CCC2(CC1)N=C(c1ccc3c(c1)OCO3)CC(c1cc(Cl)ccc1O)N2` (stereo not drawn) is 1.86 µM; for `Cc1ccccc1-c1nc(CN2CCC(C(=O)NCCCN3CCOCC3)CC2)c(C)o1` it is 3.44 µM (inactive).
As for `Cn1c(C(=O)NCCCN2CCN(c3cccc(Cl)c3)CC2)cc2c(=O)n(C)c3ccccc3c21`, the 50% effective concentration (EC50) was 5.27 µM.
With `Cn1nc(-c2ccc(Cl)cc2)c2cc(C(=O)NCCCN3CCOCC3)sc21` the figure was 10.1 µM (inactive).
On to `CCN1CCCC1CNC(=O)C1CCN(Cc2nc(-c3cccc(Br)c3)oc2C)CC1` (stereo not drawn), for which the concentration for a half-maximal effect (EC50) was 1.14 µM.
For `Cn1c(=O)cc(OCC(=O)NCCCN2CCN(c3ccccc3F)CC2)c2ccccc21`, the EC50 is 14 µM (inactive).
With `COc1ccc(N2CCN(CCCNC(=O)c3cc4sccc4n3C)CC2)cc1` the figure was 10.1 µM (inactive); with `CC1CCCCN1CCNC(=O)c1ccc2c(=O)n(CCc3ccccc3)c(=O)[nH]c2c1` (stereo not drawn), 10.5 µM (inactive).
The figure for `Cc1ccc2c(c1)-c1c(cnn1CC(=O)Nc1ccccc1N1CCN(C)CC1)CO2` is 9.77 µM.
The figure for `COC(=O)c1cc(-c2ccccc2)sc1NC(=O)c1cc(C)on1` is 0.326 µM (inactive).
Take `CN1CCN(c2cc3c(c4c2[nH]c2ccccc24)C(=O)CC(C)(C)C3)CC1`: the half-maximal effective concentration (EC50) is 4.6 µM.
With `CN(C)c1ccc(CNC2CC(C)(C)NC(C)(C)C2)cc1` the figure was > 30 µM (inactive).
In the case of `CCOc1ccccc1NC(=O)c1nc[nH]c1C(=O)Nc1ccccc1OCC`, the EC50 was 3.26 µM (inactive).
As for `CCCS(=O)(=O)N1CCCC(C(=O)NCCCN2CCN(c3ccc(F)cc3)CC2)C1` (stereo not drawn), the EC50 is 0.328 µM (inactive).
Consider `CCCc1cc(-c2n[nH]c(C)c2-c2ccc(C(=O)OCC)o2)c(O)cc1O`, for which the EC50 was 3.64 µM (inactive).
With `COc1ccc2cc3cc(C(=O)Nc4ccccc4N4CCN(C)CC4)oc3nc2c1` the figure was 2.06 µM.
For `Cc1oc(-c2ccc(Cl)cc2)nc1CN1CCC(C(=O)N2CCN(Cc3ccccc3)CC2)CC1`, the 50% effective concentration (EC50) was 3.29 µM.
With `CCN1CCN(c2cc(C)c3cc(NC(=O)c4ccc(Br)o4)ccc3n2)CC1` the figure was 3.98 µM; with `Cc1ccc(OCC(O)Cn2c(=N)n(CCN3CCCCC3)c3ccccc32)cc1` (stereo not drawn), 3.48 µM; with `Cc1cccc(-c2nsc(SCC(=O)Nc3nccs3)n2)c1`, 3.45 µM (inactive).
The figure for `CCOC(=O)c1ccccc1NC(=O)Cn1c(-c2nonc2N)nc2ccccc21` is 0.137 µM; for `CCOC(=O)c1[nH]c(C)c(C(=O)N2CCc3ccccc32)c1C` it is 0.139 µM.
The figure for `COc1ccc(CCn2c(=N)c(C(=O)NCc3ccco3)cc3c(=O)n4ccccc4nc32)cc1` is 10.2 µM (inactive); for `COc1ccc(N2CCN(CCCNC(=O)CC3Oc4ccc(C)cc4NC3=O)CC2)cc1` (stereo not drawn) it is 3.54 µM (inactive); for `Cc1ccc(Cl)cc1N1CCN(C(=O)c2cc3c(=O)n(C)c4ccccc4c3n2C)CC1` it is 0.155 µM.

Values taken from PubChem BioAssay AID1200 (NMMLSC, 2008).
